# From patent US20220324958A1, “ANTI-INFLAMMATORY PEPTIDES, PHARMACEUTICAL COMPOSITION CONTAINING SUCH PEPTIDES, AND USES THEREOF” (INSTITUTO BUTANTAN, priority 2019, published 2022)
# Entries after “also recorded” stand apart in the source; their conditions may differ.
# B1: YSIVAGSLGGGGEEQTHFHFESPKLISFKVQDYWILNDIMKKNLTGISLKSEEEDADSGEID (peptide)
# chain: YSIVAGSLGGGGEEQTHFHFESPKLISFKVQDYWILNDIMKKNLTGISLKSEEEDADSGEID
# modifications: Designated peptide based on the motif of a group of proteins called hemoline from lepidoptera acting as an anti-inflammatory molecule
# B2: YAIGYSSKDYKGGGGEEQTHFHFESPKLISFKVQDYWILNDIMKKNLTGISLKSEEEDADSGEID (peptide)
# chain: YAIGYSSKDYKGGGGEEQTHFHFESPKLISFKVQDYWILNDIMKKNLTGISLKSEEEDADSGEID
# modifications: Designated peptide based on the motif of a group of proteins called hemoline from lepidoptera acting as an anti-inflammatory molecule
# Experiments:
# [1] = tested on: osteoclast precursors (PBMNC); experiment: Osteoclast differentiation model, TRAP+ cell count; assay type: cell-based, human; details: peptide 200 nM added on day four to osteoclast precursor culture, 15 days; compared to positive control (CTRL)
# Protocol: A. Positive differentiation controls. B. Influence of synthetic peptides (200 nM) on osteoclast differentiation. C. Negative differentiation control. αMEM—Minimum Essential Medium Eagle Alpha Modification; FBS—fetal bovine serum; TRANCE—Tumor Necrosis Factor (TNF)-related Activation-induced Cytokine; M-CSF—Macrophage Colony-Stimulating Factor; TGF-β1—Transforming growth factor beta-1.
# The present invention includes the culture of monocytic cells of human leukemia (THP-1), osteoclast, primary human blood-derived mononuclear cells (PBMNC), and human chondrocytes (NHAC-kn).
# Negative differentiation controls. B. Influence of synthetic peptides (200 nM) on osteoclast differentiation.
# PBMNC were isolated and, immediately after, plating inductive culture medium (composed of Alpha-MEM+10% FBS+MCSF [25 ng/mL]+RANKL [50 ng/mL]+TGF-beta 1 [5 ng/mL]+Dexamethasone [1 μM]) was added for 15 days. On day four, the L. obliqua venom at a concentration of […] or toxins at a concentration of 200 nM, each individually, was added to the osteoclast precursor culture and these culture conditions were maintained until the end of the differentiation. Then, the cells were fixed and stained with tartrate-resistant acid phosphatase (TRAP).
# [2] = tested on: neurons obtained from SHSY5Y cells; experiment: Anti-nociceptive/anti-inflammatory model, neurons stimulated with glycated collagen (GC): substance P and β-endorphin in supernatant; assay type: cell-based
# Protocol: ANOVA and Dunnet * p<0.05; ** p<0.01 compared to glycated collagen (GC);
# ANOVA and Dunnet * p<0.05 ** p<0.01, *** p<0.001 compared with GC;
# The differentiation process consists of 6 stages distributed over 7 days. On the first day of the differentiation protocol (day 0), cells were seeded in collagen-coated plates. On days 1, 3, and 4 the culture medium was removed, and the differentiation medium containing 2% fetal bovine serum (FBS) and retinoic acid (RA) 10 μM) was added. On day 5, the medium was removed and the culture was incubated with culture medium and brain-derived neurotrophic factor (BDNF) (50 ng/mL). On day 7 of the differentiation process, differentiated neurons are fully ready for use (Agholme et al., 2010, with some modifications).
# 7×10^3 neurons/well were incubated with 10 μM of morphine (inhibitory response control) or peptides (200 nM and 500 nM) 3 hours before or 3 hours after incubation with IL-1β (10 ng/mL) or glycated collagen (GC) (100 μg/mL) (both positive controls for the release of substance P). After 24 hours of incubation, the cell viability assay and the detection of substance P and β-endorphin in the supernatant were performed. Multiplex with magnetic spheres (MILLIPLEX® MAP Magnetic Bead Panel)
# ANOVA and Dunnet * p<0.05; ** p<0.01 compared to GC.
# ANOVA and Dunnet * p<0.05 ** p<0.01, *** p<0.001 compared to GC.
# [3] = tested on: human chondrocytes (NHAC-kn); experiment: Pro-inflammatory model of chondrocytes treated with IL-1β, cytokine release (Multiplex); assay type: cell-based; details: chondrocytes treated with IL-1β (1 ng/mL)
# Protocol: Values were obtained from each analyte in pg/mL from treatment with the peptides in the presence of IL-1β (1 ng/mL). The data are presented as the mean±MSE (* p<0.05 when compared to the control with IL-1β, test t, n=3).
# (B) Chondrocytes were pretreated for 1 hour with IL-1β (1 ng/mL) before the addition of peptides (200 nM, 500 nM, and 1.25 μM) and an additional incubation of 24 hours before collecting the supernatants.
# The primary human chondrocytes used in this assay were purchased from Lonza: Normal Human Articular Primary chondrocytes (NHAC-Kn, #CC-2550, Lot 8F3336). Chondrocyte cell culture was performed in bottles (Sarstedt T175 and T75). The cells were cultivated in DMEM culture medium (Sigma) supplemented with 10% fetal bovine serum (FBS) (Sigma), incubated in an oven at 37° C. and 5% CO2, and cultures were used in the sixth passage. The culture medium was changed every two days until the culture reached 80% confluence.
# The identification and quantitative analysis of the cytokines present in the peptide treatment supernatant were performed using the Luminex xMAP Milliplex MAP Human Cytokine/Chemokine Magnetic Bead Panel Catalog #HCYTOMAG-60K technology, according to the manufacturer's instructions.
# Values were obtained from each analyte in pg/mL from treatment with the peptides in the presence of IL-1β (1 ng/mL). The data are presented as the mean±MSE (*p<0.05 when compared to the control with IL-1β, test t, n=3).
# [4] = tested on: THP-1 cells differentiated into macrophages; experiment: LPS-induced cytokine production in THP-1-derived macrophages (Multiplex); assay type: cell-based, human
# Protocol: THP-1 cells differentiated into macrophages were induced with LPS (10 ng/mL) and, one hour later, treated with synthetic peptides at a concentration of 200 nM. Dexamethasone (10 μM), an inflammatory inhibitor, was used as a control. After 24 hours, the culture medium was collected to measure the IL-1β (A), IL-6 (B), TNF-α (C), and IL-10 cytokines using a Multiplex kit. * p<0.05 vs. LPS; ** p<0.01 vs. LPS; *** p<0.005 vs. LPS;
# THP-1 cells differentiated into macrophages were induced with LPS (10 ng/mL) and, one hour later, treated with L4 or D3 peptide (0.05 μM, 0.2 μM, 1 μM, and 2 μM). After 24 hours, the culture medium was collected and TNF-alpha, IL-6, IL-23, and IL-8 were measured by Multiplex. (A) L4 peptide. (B) D3 peptide;
# Macrophages were obtained from the differentiation of monocytes THP-1. Briefly, 1×10^7 cells were treated in the RPMI medium with 25 nM PMA for 48 hours followed by 24 hours of rest in medium without PMA. Subsequently, the cells were released and plated for the respective treatments.
# The kit is based on Luminex® xMAP® technology that allows the simultaneous analysis of various cytokines. The technique is based on marked magnetic fluorescent spheres, known as MagPlex®-C microspheres. These microspheres are covered with capture antibodies specific for IL-6 […], and specifically capture the analyte in the supernatant. Each microsphere was individually identified and the results were analyzed using Luminex® Xponent® 4.2 acquisition software.
# THP-1 cells differentiated into macrophages were induced with LPS (10 ng/mL) and, one hour later, treated with synthetic peptides, […] (inflammation inhibitor, 10 μM). After 24 hours, the culture medium was collected and IL-1β (A), IL-6 (B), TNF-α (C), and IL-10 were measured by Multiplex. * p<0.05 vs. LPS; ** p<0.01 vs. LPS; *** p<0.005 vs. LPS.
# THP-1 cells differentiated into macrophages were induced with LPS (10 ng/mL) and, one hour after, treated with L4 (0.05 μM, 0.2 μM, 1 μM, and 2 μM). After 24 hours, the culture medium was collected and TNF-α, IL-6, IL-23, and IL-8 were measured by Multiplex. (A) L4 peptide. (B) D3 peptide.
# [5] = peptide 200 nM incubated 3 hours after GC (100 μg/mL)
# [6] = LPS 10 ng/mL, peptide 200 nM one hour later, 24 hours, vs group treated only with LPS
# [7] = dose-response 0.05, 0.2, 1 and 2 μM, LPS 10 ng/mL, 24 hours
molecule,measurement,setting,value
"EEQTHFHFESPKLISFKVQDYWILNDIMKKNLTGISLKSEEEDADSGEID (Designated peptide based on the motif of a group of proteins called hemoline from lepidoptera acting as an anti-inflammatory molecule) [Cambly, peptide derived from the Amblyomin-X molecule with characteristics of CPP (cell-penetrating peptides)]",number of TRAP+ cells,[1],reduced
same,production of Substance P,[2]; [5],significantly inhibited
same,production of β-endorphin,[2]; [5],increased
same,production of Substance P,[2]; peptide (200 nM and 500 nM) incubated 3 hours before GC (100 μg/mL),significantly decrease; also recorded: inhibited
same,production of β-endorphin,[2]; peptide incubated 3 hours before GC (100 μg/mL),did not affect
IWTKDGKAIT (Designated peptide based on the motif of a group of proteins called hemoline from lepidoptera acting as an anti-inflammatory molecule) [L1],"anti-inflammatory activity (release of G-CSF, GM-CSF, IL-6, IL-8, MCP-1, TNF-α)",[3],anti-inflammatory activity
NYFKNGKDVN (Designated peptide based on the motif of a group of proteins called hemoline from lepidoptera acting as an anti-inflammatory molecule) [L2],number of TRAP+ cells,[1],no statistically significant difference
same,"anti-inflammatory activity (release of G-CSF, GM-CSF, IL-6, IL-8, MCP-1, TNF-α)",[3],anti-inflammatory activity
QPEISWTRNK (Designated peptide based on the motif of a group of proteins called hemoline from lepidoptera acting as an anti-inflammatory molecule) [L6],"anti-inflammatory activity (release of G-CSF, GM-CSF, IL-6, IL-8, MCP-1, TNF-α)",[3],anti-inflammatory activity
RWLKDGQAFH (Designated peptide based on the motif of a group of proteins called hemoline from lepidoptera acting as an anti-inflammatory molecule) [L8],"anti-inflammatory activity (release of G-CSF, GM-CSF, IL-6, IL-8, MCP-1, TNF-α)",[3],anti-inflammatory activity
SWLKNGREFR (Designated peptide based on the motif of a group of proteins called hemoline from lepidoptera acting as an anti-inflammatory molecule) [L5],"anti-inflammatory activity (release of G-CSF, GM-CSF, IL-6, IL-8, MCP-1, TNF-α)",[3],anti-inflammatory activity
TWNKKGKKVN (Designated peptide based on the motif of a group of proteins called hemoline from lepidoptera acting as an anti-inflammatory molecule) [L4],levels of IL-10 (anti-inflammatory cytokine),"[4]; LPS 10 ng/mL, peptide 200 nM one hour later, 24 hours",increase
same,levels of IL-1β,[4]; [6],significantly reducing
same,levels of IL-6,[4]; [6],significantly reducing
same,levels of TNF-a,[4]; [6],significantly reducing
same,dose achieving the greatest inhibition of IL-6 release,[4]; [7],200 nM
same,dose achieving the greatest inhibition of IL-8 release,[4]; [7],200 nM
same,most effective dose concerning IL-23 release,[4]; [7],1 µM
same,most effective dose concerning TNF-α release,[4]; [7],1 µM
same,production of inflammatory cytokines in response to LPS (dose-dependent),"[4]; dose-response 0.05-2 μM, TNF-α, IL-6, IL-23, IL-8",reduced
same,"anti-inflammatory activity (release of G-CSF, GM-CSF, IL-6, IL-8, MCP-1, TNF-α)",[3],anti-inflammatory activity
VWRKNGKKVS (Designated peptide based on the motif of a group of proteins called hemoline from lepidoptera acting as an anti-inflammatory molecule) [L3],"anti-inflammatory activity (release of G-CSF, GM-CSF, IL-6, IL-8, MCP-1, TNF-α)",[3],anti-inflammatory activity
YSIVAGCL (Designated peptide based on the motif of a group of proteins called hemoline from lepidoptera acting as an anti-inflammatory molecule) [E8],production of Substance P,[2]; [5],significantly inhibited
same,production of β-endorphin,[2]; [5],increased
same,"anti-inflammatory activity (release of G-CSF, GM-CSF, IL-6, IL-8, MCP-1, TNF-α)",[3],anti-inflammatory activity
B1,number of TRAP+ cells,[1],significant decrease; also recorded: reduced
B2,production of Substance P,[2]; [5],significantly inhibited
same,production of β-endorphin,[2]; [5],increased
